From US6127379A, “Benzopyran, benzothiopyran and benzofuran derivatives as 5-HT4 antagonists” (SmithKline Beecham p.l.c., priority 1994, dated 2000)
Where a name gives a salt, the structure may show the parent alone.

Columns and labels:
5-HT4 receptor [1] = target: 5-HT4 receptor (Sus scrofa, UniProt Q6Q253); assay: Piglet atria spontaneous beating screen; type: cell-based; conditions: piglet spontaneously beating atria
Procedure: (§1) 5-HT4 RECEPTOR ANTAGONIST ACTIVITY
Compounds were tested in the piglet spontaneous beating screen (Naunyn-Schmiedeberg's Arch. Pharmacol 342, 619-622). pKB (-log10 KB) value for the compound of Examples 3 and 7 were 9.8 and 7.7 respectively.

5-HT4 receptor [2] = assay: 5-HT-induced motility in dog gastric pouch; type: in vivo; conditions: dose of 10 μg kg^-1
Procedure: as §1
4) 5-HT-induced motility in dog gastric pouch
Compounds are tested in the in vivo method described in "Stimulation of canine motility by BRL 24924, a new gastric prokinetic agent", Bermudez et al, J. Gastrointestinal Motility, 2(4), 281-286.

5-HT4 receptor [3] = target: T1, 5-HT4 receptor (Cavia porcellus, UniProt O70528); assay: Guinea pig colon longitudinal muscle-myenteric plexus, 5-HT-evoked contraction; type: cell-based; conditions: guinea pig distal colon
T1 construct: guinea pig distal colon longitudinal muscle-myenteric plexus, 5-HT-evoked contraction
Procedure: as §1
Male guinea-pigs, weighing 250-400g are used. Longitudinal muscle-myentericplexus preparations, approximately 3 cm long, are obtained from the distal colon region. These are suspended under a 0.5 g load in isolated tissue baths containing Krebs solution bubbled with 5%, CO2 in O2 and maintained at 37° C. In all experiments, the Krebs solution also contains methiothepin 10^-7 M and granisetron 10^-6 M to block effects at 5-HT1, 5-HT2 and 5-HT3 receptors.
After construction of a simple concentration-response curve with 5-HT, using 30 s contact times and a 15 min dosing cycle, a concentration of 5-HT is selected so as to obtain a contraction of the muscle approximately 40-70% maximum(10^-9 M approx). The tissue is then alternately dosed every 15 min with this concentration of 5-HT and then with an approximately equi-effective concentration of the nicotine receptor stimulant, dimethylphenylpiperazinium (DMPP). After obtaining consistent responses to both 5-HT and DMPP, increasing concentrations of a putative 5-HT4 receptor antagonist are then added to the bathing solution. The effects of this compound are then determined as a percentage reduction of the contractions evoked by 5-HT or by DMPP. […] A compound which reduces the response to 5-HT but not to DMPP is believed to act as a 5-HT4 receptor antagonist.

T1 sequence (O70528 whole entry): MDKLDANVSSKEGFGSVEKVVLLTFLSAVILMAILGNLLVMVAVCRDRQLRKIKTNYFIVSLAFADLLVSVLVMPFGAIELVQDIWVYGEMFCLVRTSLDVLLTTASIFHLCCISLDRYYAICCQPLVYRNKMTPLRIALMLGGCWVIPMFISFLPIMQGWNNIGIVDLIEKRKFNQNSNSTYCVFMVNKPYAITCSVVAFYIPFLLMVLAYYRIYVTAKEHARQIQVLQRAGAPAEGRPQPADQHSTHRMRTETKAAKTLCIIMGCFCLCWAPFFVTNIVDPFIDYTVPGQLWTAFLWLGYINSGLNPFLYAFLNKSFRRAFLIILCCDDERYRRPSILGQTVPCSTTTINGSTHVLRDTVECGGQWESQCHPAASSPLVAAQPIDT
Sequence of 5-HT4 receptor (Sus scrofa, UniProt Q6Q253) (Q6Q253 1-402): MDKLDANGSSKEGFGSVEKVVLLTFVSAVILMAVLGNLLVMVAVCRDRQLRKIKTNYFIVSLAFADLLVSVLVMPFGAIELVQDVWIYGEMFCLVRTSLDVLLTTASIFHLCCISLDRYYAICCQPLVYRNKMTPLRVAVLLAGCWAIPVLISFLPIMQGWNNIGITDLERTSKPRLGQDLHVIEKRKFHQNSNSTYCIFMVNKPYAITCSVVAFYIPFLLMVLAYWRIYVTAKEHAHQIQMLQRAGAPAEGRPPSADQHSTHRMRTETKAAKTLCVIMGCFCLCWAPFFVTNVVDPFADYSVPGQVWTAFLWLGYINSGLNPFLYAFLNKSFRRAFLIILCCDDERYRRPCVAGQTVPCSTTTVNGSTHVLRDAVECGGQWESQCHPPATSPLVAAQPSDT

pKB (-log10 KB) (5-HT4 receptor [1])	5-HT4 receptor antagonist activity (in words) (5-HT4 receptor [3])	SMILES	inhibition of 5-HT-induced motility (5-HT4 receptor [2])
9.8	particularly good activity	CCCCN1CCC(COC(=O)c2cc(Cl)cc3c2OCCC3)CC1 [Example E3, (1-Butyl-4-piperidyl)methyl-6-chloro-[2H]-3,4-dihydro-1-benzopyran-8-carboxylate]	showed inhibition
7.7		O=C(OCCN1CCCCC1)c1cc(Cl)cc2c1OCCC2 [Example E7, (1-Piperidyl)ethyl-6-chloro-[2H]-3,4-dihydro-1-benzopyran-8-carboxylate hydrochloride]	
	particularly good activity	CCCCN1CCC(CNC(=O)c2cc(Cl)cc3c2OCCC3)CC1 [Example E8, (1-Butyl-4-piperidyl)methyl-6-chloro-[2H]-3,4-dihydro-1-benzopyran-8-carboxamide hydrochloride]	
	particularly good activity	CCCCN1CCC(CNC(=O)c2cc(Cl)c(N)c3c2OCCC3)CC1 [Example E12, 5-Amino-(1-butyl-4-piperidyl)methyl-6-chloro-[2H]-3,4-dihydro-1-benzopyran-8-carboxamide]	
